Measured values reported in patent US6579696B1, “Polymyxin B conjugates” (priority 1992, dated 2003).
Where two headings read alike, the source gives them in different places.

Tests used:
E. coli J5 [1] = type: cell-based; parameters: key: −: no agglutination; +: microagglutination; +++: macroagglutination; conditions: for Agglutination by avidin beads: Table 53
Procedure: (§1) 100 ul polystyrene beads (Spherotech […], 5% w/v) were aliquoted to two 1.5 mL microcentrifuge tubes, centrifuged 1 min at 12,000 g in microcentrifuge and washed 2×with 1 ml PBS (vortexed and recentrifuged 1-2 min after each wash). The beads were resuspended in 900 ul PBS, and 100 ul of 1 mg/ml solution of avidin (Sigma) added, and the tubes rotated overnight at room temperature. The beads were pelleted, and washed sequentially as described above with 1 ml PBS, PBS+0.5% tween 20 (PBST), and PBS, and each sample resuspended in 200 ul PBS. The samples were pooled and stored at 4 degrees.
(§2) 20 ul avidin coated beads were aliquoted into 2×1.5 ml microcentrifuge tubes, and non-specifically binding sites blocked by rotating with 1 ml PBS+1% BSA for 1 hr at room temperature. […] The samples were pelleted, and washed with 1 ml PBS, repelleted and resuspended with 20 ul PBS. III Bacterial Agglutination Assays
(§3) 5 ul of each resin was added to 20 ul bacteria (1/10 dilution of a saturated overnight culture) in independant depression wells (2 wells/bacteria tested). The samples were incubated 30 min at 37 degrees, swirled, and agglutination scored. (Note that −=no agglutination, +=microagglutination and +++=macroagglutination)
To determine if free Immunoadaptor™ compounds can also stably bind surface exposed bacterial structures, agglutination assays were performed using bacteria prebound to Immunoadaptor™ compounds. The assay was performed with J5 bacteria, since the agglutination signal (see table above) was the strongest with this strain. 40 ul avidin coated resin was blocked for 1 hr at room temperature with 1 ml PBS+1% BSA, pelleted as described above, and resuspended in 40 ul PBS. […] The following assays were performed:
Incubated 1 hr at 37 degrees in depression well, swirled and agglutination scored.
Incubated 10 min at 37 degrees then added 5 ul avidin coated beads. Incubated 1 hr at 37 degrees in depression well, swirled and agglutination scored.
Incubated 15 min at 37 degrees, pelleted cells by centrifugation, washed with 100 ul PBS (resuspended cells with micropipetter) and repelleted. Cells were resuspended in 80 ul PBS, 20 ul aliquots distributed to depression well, 5 ul avidin coated beads added, and, incubated 1 hr at 37 degrees, swirled and agglutination scored.

[2] = tested on: mouse monoclonal anti-fluorescein antibody (#4-4-20); type: binding
Description: Millipolarization data was hand calculated using the above equations as described for the fully automated instrument. Total intensity is not represented in the following tables. Table 48 illustrates the reactivity of PMB-Cys-Fl when reacted with mouse monoclonal anti-fluorescein antibody (#4-4-20) obtained from Edward M. Voss at the University of Illinois Urbana.

E. coli 0111: B4 = type: binding; conditions: bacteria coated at 5.0 ug/ml, washed; no antibody
Procedure: (§4) Staph. aureus and E. coli 0111: B4 were cultured in TSB media at 37 degrees C with shaking. Cells were collected by centrifugation and suspended in 50 mM sodium phosphate buffer, pH 6.8. The cells were again collected by centrifugation and suspended in […] sodium phosphate buffer containing 0.025% sodium azide (buffer).
(§5) The bacteria were diluted with buffer to an absorbance of 1.0 at 620 nm. PMB-Cys-Mal-FL was added to 2.5 ml of each diluted bacterial suspension, to a final concentration of 5.0 ug/ml. The suspensions were incubated at ambient temperature for 5 minutes. The bacteria were collected by centrifugation and suspended in buffer, repeated for a total of three times. The bacteria were then suspended in buffer and Tween 20 detergent was added to a final concentration of 0.1%. The bacteria were again collected by centrifugation and suspended in 1.5 ml buffer without Tween 20.
(§6) The bacteria were diluted 10 fold with buffer and fluorescence was measured in a Sequoia-Turner model 450 Fluorometer using NB490 and SC515 filters with the gain at 5. Mouse monoclonal anti-fluorescein antibody 4-4-20 was added with mixing to the bacterial suspensions. Table 50 summarizes the experimental results.

Staph. aureus = type: binding; conditions: bacteria coated at 5.0 ug/ml, washed
Procedure: as §4, §5, §6

E. coli HB101 = type: cell-based; parameters: key: −: no agglutination; +: microagglutination; +++: macroagglutination; conditions: avidin beads loaded with compound
Procedure: as §1, §2, §3

E. coli 0111:B4 [3] = type: cell-based; parameters: key: −: no agglutination; +: microagglutination; +++: macroagglutination; conditions: avidin beads loaded with compound
Procedure: as §1, §2, §3

Salmonella 34576 = type: cell-based; parameters: key: −: no agglutination; +: microagglutination; +++: macroagglutination; conditions: avidin beads loaded with compound
Procedure: as §1, §2, §3

E. coli J5 [4] = type: cell-based; conditions: Table 40
[5] = target: avidin and chicken anti-PMB antibody (Gallus gallus, UniProt P02701)
Sequence of avidin and chicken anti-PMB antibody (P02701 25-152): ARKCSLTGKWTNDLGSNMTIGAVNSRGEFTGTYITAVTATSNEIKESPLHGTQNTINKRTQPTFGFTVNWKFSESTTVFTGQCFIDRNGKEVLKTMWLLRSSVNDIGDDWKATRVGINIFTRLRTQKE
Procedure: The capture ELISA was performed as described below. […] The coating suspensions were decanted, and all wells were washed three times using PBS+0.5% Tween 20 (PBST). In order to block non-specific binding sites, 100 ul of 1% BSA (Sigma, St. Louis, Mo.) in PBS (blocking solution) was then added to each well, and the plates were incubated for 1 hr. at 37° C.
The blocking solution was decanted, and duplicate samples of 150 ul of either PMB-Cy-Biotin or PMB-Cy-Fl added to the first well of a dilution series. The initial testing concentration of the premixed conjugate was 10 ng/ml in blocking buffer (see above), followed by 5 fold dilutions in blocking buffer. This was accomplished by serially transferring 30 ul aliquots to 120 ul buffer, mixing, and repeating the dilution into a fresh well. After the final dilution, 30 ul was removed from the well such that all wells contained 120 ul final volume. A total of 2 such dilutions were performed. […] Following this incubation, the serially diluted samples were decanted, and the wells were washed six times using PBST (Phosphate-Buffered Saline with Tween). To each well, 100 ul of 1/1000 diluted chicken anti-PMB antibody or chicken preimmune, diluted in blocking buffer was added, and the plate incubated 1 hr at 37° C. The antibody solutions were decanted and the plates were washed as described above. To each well, 100 ul of 1/1000 diluted rabbit anti-chicken IgG alkaline phosphatase (Sigma) diluted in blocking buffer was added, and the plate incubated 1 hr at 37° C. The antibody solutions were decanted and the plates were washed as described above, substituting 50 nM Na2CO3, pH 9.5 for the PBST in the final wash. The plates were developed by the addition of 100 ul of a solution containing 1 mg/ml para-nitro phenyl phosphate (Sigma, St. Louis, Mo.) dissolved in 50 nM Na2CO3, 10 mM MgCl2, pH 9.5 to each well, and incubating the plates at room temperature in the dark overnight. […] Only the ELISA readings from the maximally diluted samples in each dilution series are shown.

H16 bacterial strain = type: binding; conditions: 1 ug/ml, Extravidin and anti-avidin chase
E. coli 0111:B4 bacteria = type: binding; conditions: in °C (unit assumed)
[6] = tested on: J5 bacteria phagocytosed by J774A.1 mouse macrophage cell line; type: cell-based
E. coli 0111:B4 [7] = tested on: E. coli 0111:B4

For “polymyxin B—cystiene—Maleimamide—fluorescein [PMB-Cys-Mal-FL]”, the “Agglutination by avidin beads” value (E. coli J5 [1]; Chase format) was “−”, the “Agglutination by avidin beads” value (E. coli J5 [1]; Premix format) was “−” and the “Agglutination by avidin beads” value (E. coli J5 [1]; Wash + Chase format) was “−”. The Agglutination (E. coli J5 [1]; avidin beads loaded with compound) was “−”, the mP ([2]; PMB-Cys-Mal-FL 10^−7 M alone) was 32.5 and the mP ([2]; antibody 5 × 10^-8 M & PMB-Cys-Mal-FL 10^-7 M) was 390.3. For the same substance, the “quenching of the intensity signal by anti-fluorescein antibody” value ([2]; not represented in Table 48) was 95%, the “FLUORESCENCE of coated bacteria” value (E. coli 0111: B4) was 40 AFU and the “FLUORESCENCE of coated bacteria” value (Staph. aureus) was 5 AFU. The Agglutination (E. coli HB101) was “−”, the Agglutination (E. coli 0111:B4 [3]) was “−” and the Agglutination (Salmonella 34576) was “−”. The MIC (E. coli J5 [4]) was 0.8 µg/mL, the “ELISA absorbency at 410 nm” value ([5]; Anti-PMB test antibody, Avidin coated wells, maximally diluted sample) was 0.033 and the “ELISA absorbency at 410 nm” value ([5]; Anti-PMB, PBS coated wells) was 0.016. For the same substance, the “ELISA absorbency at 410 nm” value ([5]; Preimmune, Avidin coated wells) was 0.010, the “ELISA absorbency at 410 nm” value ([5]; Preimmune, PBS coated wells) was 0.020 and the ELISA titer (H16 bacterial strain; 2 × 10^5 bacteria) was 0.005. It also gave an ELISA titer (H16 bacterial strain; 2 × 10^6 bacteria) of 0.162, a mP (E. coli 0111:B4 bacteria; E. coli (2.7 × 10^8 bacteria) & PMB-Cys-Mal-Fl) of 256.8 and a mP (E. coli 0111:B4 bacteria; PMB-Cys-Mal-Fl (10^−8 M) alone) of 57.3. The “% Macrophage with phagocytosed bacteria” value ([6]; Table 59, 0.5 ug/ml then 10 ug/ml anti-fluorescein antibody (chase)) was 40%, the “% Macrophage with phagocytosed bacteria” value ([6]; Table 59, 0.5 ug/ml with 10 ug/ml anti-fluorescein antibody (premix)) was 29% and the “% Macrophage with phagocytosed bacteria” value ([6]; Table 59, opsonin alone) was 15%. For the same substance, the Recovered bacterial colonies ([6]; Table 59, opsonin alone) was 29, the Recovered bacterial colonies ([6]; Table 59, then anti-fluorescein antibody (chase)) was 76 and the Recovered bacterial colonies ([6]; Table 59, with anti-fluorescein antibody (premix)) was 52. The “% Macrophage with phagocytosed bacteria” value ([6]; Table 60, 1×10^8 J5 bacteria opsonized, from 100 macrophage examined, conjugates 0.5 ug/ml, anti-avidin 1/500, anti-fluorescein antibody 25 ug/ml) was 5%, the “% Macrophage with phagocytosed bacteria” value ([6]; Table 61 (repeat assay), 1×10^8 J5 bacteria opsonized, from 100 macrophage examined, conjugates 0.5 ug/ml, anti-avidin 1/400, anti-fluorescein antibody 14 ug/ml) was 8% and the “enhancement of phagocytosis (in words)” value ([6]; with anti-fluorescein antibody) was “Clear elevation of phagocytosis”. The MIC (E. coli 0111:B4 [7]; Table 40, first number of the cell) was 0.9 µg/mL and the MIC (E. coli 0111:B4 [7]; Table 44) was 1 µg/mL.
